Laboratory results as given in US12213959B2, “Use of 3-O-sulfamoyloxy-7β-methyl-d-homo-6-oxaestra-1,3,5(10),8(9)-tetraen-17a-one to treat breast cancer” (priority 2018, dated 2025).
Where “and” joins values, the source holds several entries; their conditions need not be identical. Equal entries are not always repeated. Marks after values point to notes of the source that are not given here.

Tests used:
[1] = system: breast tumours in FBV/N female mice, transgenic for HER-2/neu; assay: Antitumour activity on breast tumours of HER-2/neu transgenic mice; type: in vivo; details: for Average total tumour volume, % of change to the initial value / Average tumor volume, % of change to the initial value: Day 28 vs Day 0; for Absolute number of new tumours / frequency of stabilisations of tumours present at initiation of treatment / volume of new tumours, less than the control (Control-2) value: end of observation
Experimental: The study was carried out on female FVB mice transgenic for HER-2/neu of the conventional category, the strain being obtained from the mouse bank Charles River Laboratories (Italy).
Duration of the administration course was 27-28 days.
The control groups were given the olive oil (placebo).
The macroscopically detectable tumor nodes were measured in the animals once per week during the weighing process.

[2] = system: MDA-MB-231 cell line of triple negative breast cancer; assay: Cell growth inhibition on MDA-MB-231; type: cell-based; details: Homo sapiens
[3] = system: inoculated human tumour of triple-negative breast cancer; assay: Animal models with inoculated human triple-negative breast cancer tumour; details: in vivo
[4] = medicament 20 mg/kg daily i.g., Day 28
[5] = medicament 20 mg/kg, vs Control-2, Day 0
[6] = medicament 20 mg/kg, vs Control-2, Day 7
[7] = medicament 20 mg/kg, vs Control-2, Day 14
[8] = medicament 20 mg/kg, vs Control-2, Day 21
[9] = medicament 20 mg/kg, vs Control-2, Day 28
[10] = medicament 100 mg/kg daily i.g., Day 0
[11] = medicament 100 mg/kg daily i.g., Day 7
[12] = medicament 100 mg/kg daily i.g., Day 14
[13] = medicament 100 mg/kg daily i.g., Day 21
[14] = medicament 100 mg/kg daily i.g., Day 28
[15] = medicament 100 mg/kg daily i.g.
[16] = medicament 100 mg/kg, vs Control-2, Day 0
[17] = medicament 100 mg/kg, vs Control-2, Day 7
[18] = medicament 100 mg/kg, vs Control-2, Day 14
[19] = medicament 100 mg/kg, vs Control-2, Day 21
[20] = medicament 100 mg/kg, vs Control-2, Day 28

Q: What does the source list for `C[C@H]1Oc2cc(OS(N)(=O)=O)ccc2C2=C1[C@@H]1CCCC(=O)[C@@]1(C)CC2` [medicament, 3-O-sulfamoyloxy-7β-methyl-O-homo-6-oxaestra-1,3,5(10),8(9)-tetraen]?
A: Average total volume of tumours in mice (M) [1, 4]: 1.22 cm^3; Average volume of tumors existing at the beginning of the experiment (M) [1, 4]: 0.55 cm^3; Relative change of the average total volume of tumours to that of Day −1 (M) ([1]; medicament 20.0 mg/kg daily i.g., Day 28): 227*** %; Average total tumour volume, % of change to the initial value ([1]; medicament 20 mg/kg daily i.g.): 198%; Average tumor volume, % of change to the initial value ([1]; medicament 20 mg/kg daily i.g.): 206%; Absolute number of new tumours ([1]; medicament 20 mg/kg): 22; frequency of stabilisations of tumours present at initiation of treatment ([1]; medicament 20 mg/kg): 9%; volume of new tumours, less than the control (Control-2) value ([1]; medicament 20 mg/kg): 32%; TGI (average total tumour volume) [1, 5]: −116%; TGI (average tumor volume) [1, 5]: −125%; TGI (average total tumour volume) [1, 6]: −114%; TGI (average tumor volume) [1, 6]: −115%; TGI (average total tumour volume) [1, 7]: −45%; TGI (average tumor volume) [1, 7]: −54%; TGI (average total tumour volume) [1, 8]: −19%; TGI (average tumor volume) [1, 8]: −26%; TGI (average total tumour volume) [1, 9]: 12%; TGI (average tumor volume) [1, 9]: 10%; Average volume of new tumours at the end of the observation period ([1]; medicament 100 mg/kg): 0.18±0.04 cm^3 and 0.18 cm^3; Average total volume of tumours in mice (M) [1, 10]: 0.28 cm^3; Average volume of tumors existing at the beginning of the experiment (M) [1, 10]: 0.13 cm^3; Relative change of the average total volume of tumours to that of Day −1 (M) ([1]; medicament 100.0 mg/kg daily i.g., Day 0): 0%; Average total volume of tumours in mice (M) [1, 11]: 0.41 cm^3; Average volume of tumors existing at the beginning of the experiment (M) [1, 11]: 0.19 cm^3; Relative change of the average total volume of tumours to that of Day −1 (M) ([1]; medicament 100.0 mg/kg daily i.g., Day 7): 42%; Average total volume of tumours in mice (M) [1, 12]: 0.59 cm^3; Average volume of tumors existing at the beginning of the experiment (M) [1, 12]: 0.27 cm^3; Relative change of the average total volume of tumours to that of Day −1 (M) ([1]; medicament 100.0 mg/kg daily i.g., Day 14): 89* %; Average total volume of tumours in mice (M) [1, 13]: 0.81 cm^3; Average volume of tumors existing at the beginning of the experiment (M) [1, 13]: 0.37 cm^3; Relative change of the average total volume of tumours to that of Day −1 (M) ([1]; medicament 100.0 mg/kg daily i.g., Day 21): 177*** %; Average total volume of tumours in mice (M) [1, 14]: 0.97* cm^3; Average volume of tumors existing at the beginning of the experiment (M) [1, 14]: 0.44 cm^3; Relative change of the average total volume of tumours to that of Day −1 (M) ([1]; medicament 100.0 mg/kg daily i.g., Day 28): 269*** %; Average total tumour volume, % of change to the initial value [1, 15]: 246%; Average tumor volume, % of change to the initial value [1, 15]: 238%; Absolute number of new tumours ([1]; medicament 100 mg/kg): 19; frequency of stabilisations of tumours present at initiation of treatment ([1]; medicament 100 mg/kg): 9%; volume of new tumours, less than the control (Control-2) value ([1]; medicament 100 mg/kg): 36%; TGI (average total tumour volume) [1, 16]: −47%; TGI (average tumor volume) [1, 16]: −63%; TGI (average total tumour volume) [1, 17]: −41%; TGI (average tumor volume) [1, 17]: −46%; TGI (average total tumour volume) [1, 18]: 9%; TGI (average tumor volume) [1, 18]: 4%; TGI (average total tumour volume) [1, 19]: 18%; TGI (average tumor volume) [1, 19]: 14%; TGI (average total tumour volume) [1, 20]: 30%; TGI (average tumor volume) [1, 20]: 28%; relative change in the total volume of tumours versus control groups ([1]; medicament 20 and 100 mg/kg): statistically significantly lower; IC50 [2]: 4.8 µM; action compared with Tamoxifen and Letrozole [3]: better action than that of the clinically used Tamoxifen and an aromatase inhibitor Letrozole
